The values below come from patent US20060148860A1, “Substituted p-phenyl carbamates” (Novo Nordisk A/S, priority 2003, published 2006).

The target of this assay is T1, hormone sensitive lipase (HSL) (Homo sapiens, UniProt Q05469).
T1 sequence (Q05469 1-1076): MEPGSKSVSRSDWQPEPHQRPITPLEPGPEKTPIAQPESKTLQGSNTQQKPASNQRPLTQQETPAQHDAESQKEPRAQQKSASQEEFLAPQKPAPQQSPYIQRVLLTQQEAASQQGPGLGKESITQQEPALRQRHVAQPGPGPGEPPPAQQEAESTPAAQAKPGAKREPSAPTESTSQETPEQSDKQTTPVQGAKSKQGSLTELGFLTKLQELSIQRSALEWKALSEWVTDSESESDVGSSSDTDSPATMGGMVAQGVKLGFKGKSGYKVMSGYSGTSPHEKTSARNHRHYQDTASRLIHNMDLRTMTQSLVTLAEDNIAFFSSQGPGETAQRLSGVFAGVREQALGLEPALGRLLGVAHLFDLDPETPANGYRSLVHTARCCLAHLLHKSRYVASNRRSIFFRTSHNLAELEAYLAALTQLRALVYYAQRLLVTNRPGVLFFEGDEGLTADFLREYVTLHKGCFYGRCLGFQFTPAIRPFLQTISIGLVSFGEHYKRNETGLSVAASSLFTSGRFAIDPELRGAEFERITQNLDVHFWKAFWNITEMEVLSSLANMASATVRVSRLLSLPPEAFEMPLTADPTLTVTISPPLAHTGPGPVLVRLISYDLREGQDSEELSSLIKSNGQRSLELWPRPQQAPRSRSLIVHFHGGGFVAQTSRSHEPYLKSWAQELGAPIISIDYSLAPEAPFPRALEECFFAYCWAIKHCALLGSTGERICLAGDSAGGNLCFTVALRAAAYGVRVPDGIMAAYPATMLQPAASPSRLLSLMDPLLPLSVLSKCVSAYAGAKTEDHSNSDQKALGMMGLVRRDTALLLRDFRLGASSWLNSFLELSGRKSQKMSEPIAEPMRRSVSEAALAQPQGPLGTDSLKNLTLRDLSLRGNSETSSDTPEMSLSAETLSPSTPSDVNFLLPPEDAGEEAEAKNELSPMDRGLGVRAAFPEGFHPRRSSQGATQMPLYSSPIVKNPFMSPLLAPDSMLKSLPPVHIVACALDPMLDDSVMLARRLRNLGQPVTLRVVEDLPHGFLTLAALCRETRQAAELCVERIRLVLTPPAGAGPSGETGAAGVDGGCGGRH
Nature of the assay: 3190.1: percent inhibition of hormone sensitive lipase at 10 μM (fluorochrome-labeled triacylglyceride emulsion, HSL_FL). The settings on record: 10 μM sample concentration; % activity relative to non-inhibited sample (no compound); 30 min pre-incubation at 25° C., 120 min at 37° C. It is filed as biochemical. From the text: Materials. The Hormone-sensitive lipase was provided by Dr. Cecilia Holm, from Lund University Sweden or produced and purified by Novo Nordisk (NN) using the reagents and protocols used by Dr. Holm. The substrates used are: ^3H-labeled triolein (TO) from Amersham, Buckinghamshire, U.K. cat No. TRA191; 5-20 Ci/mmol dissolved in toluene, triolein (Sigma, Cat. No. T-1740), fluorochrome-labeled triacylglyceride (cis-octadec-9-enoic acid 2-[12-(7-nitrobenzo[1,2,5]oxadiazol-4-ylamino)dodecanoyloxy]-1-cis-octadec-9-enoyloxymethyl-ethyl ester) prepared by Novo Nordisk (NN) by conventional methods, and 1,3-(di[^3H]-stearin), 2-(PEG-Biotin)glycerol prepared in collaboration with Amersham Pharmacia Biotech, UK and described in WO 01/073442. Phosphatidyl choline (PC) and phosphatidyl inositol (PI) are from Sigma (St Luis Mo. cat. Nos. P-3556 and P-5954 respectively). All other reagents are of commercial grade and obtained from various commercial sources.
3190.1: Assay for determination of percent inhibition of hormone sensitive lipase by compound at 10 μM sample concentration.
A lipid emulsion with fluorochrome-labeled triacylglyceride and phospholipid is used as substrate with a standard concentration of highly purified HSL (12 μg/mL initial concentration corresponding to 600 ng/mL final concentration). BSA is added as product acceptor. The transfer of the fluorochrome from the lipid phase to the water (BSA) phase changes the fluorescent properties of the fluorochrome. The changes can be monitored on a fluorimeter with an excitation wavelength of 450 nm and an emission wavelength of 545 nm.
Compound and HSL (20 μL compound, 10 μL enzyme and 70 μL PED-BSA buffer) is pre-incubated for 30 min at 25° C. before addition of substrate (100 μL). Amount of formed product is measured after 120 min incubation at 37° C.
Results are given as percent activity relative to a non-inhibited sample (no compound).
For `CN(C(=O)Oc1ccc(CCOc2ccncc2)cc1)c1ccccc1` [Example 1, Methyl-phenyl-carbamic acid 4-[2-(pyridin-4-yloxy)-ethyl]-phenyl ester], the activity at 10 µM worked out at 1%.

Turning to `CN(C(=O)Oc1ccc(CSc2ncc[nH]2)cc1)c1ccccc1` [Example 2, Methyl-phenyl-carbamic acid 4-(1H-imidazol-2-ylsulfanylmethyl)-phenyl ester], the activity at 10 µM is 1%.

As to `CN(C(=O)Oc1ccc(CCSc2ncc[nH]2)cc1)c1ccccc1` [Example 3, Methyl-phenyl-carbamic acid 4-[2-(1H-imidazol-2-ylsulfanyl)-ethyl]-phenyl ester], the activity at 10 µM amounted to 1%.

Molecule `Cc1cccc(Cc2ccc(OC(=O)N(C)c3ccccc3)cc2)n1` [Example 4, Methyl-phenyl-carbamic acid 4-(6-methyl-pyridin-2-ylmethyl)-phenyl ester] displayed an activity at 10 µM of 5%.
